From patent US9302999B2, “Substituted triazoles as herbicides” (E. I. DU PONT DE NEMOURS AND COMPANY, priority 2012, dated 2016)

What was measured:
Oilseed Rape [1] = assay: Test C preemergence: oilseed rape; assay type: in vivo; conditions: scale of 0 to 100, 0 is no effect, 100 is complete control
Description: (§1) Seeds of plant species selected from blackgrass (Alopecurus myosuroides), bromegrass, downy (downy bromegrass, Bromus tectorum), foxtail, green (green foxtail, Setaria viridis), ryegrass, Italian (Italian ryegrass, Lolium multiflorum), winter wheat (Triticum aestivum), wild oat (Avena fatua), galium (catchweed bedstraw, Galium aparine), bermudagrass (Cynodon dactylon), surinam grass (Brachiaria decumbens), cocklebur (common cocklebur, Xanthium strumarium), corn (Zea mays), large crabgrass (Digitaria sanguinalis), woolly cupgrass (Eriochloa villosa), foxtail, giant (giant foxtail, Setaria faberii), goosegrass (Eleusine indica), johnsongrass (Sorghum halepense), kochia (Kochia scoparia), lambsquarters (Chenopodium album), morningglory (Ipomoea coccinea), nightshade (eastern black nightshade, Solanum ptycanthum), nutsedge, yellow (yellow nutsedge, Cyperus esculentus), pigweed (Amaranthus retroflexus), ragweed (common ragweed, Ambrosia elation), soybean (Glycine max), common (oilseed) sunflower (Helianthus annuus), Russian thistle (Salsola kali) and velvetleaf (Abutilon theophrasti) were planted into a blend of loam soil and sand and treated preemergence with test chemicals formulated in a non-phytotoxic solvent mixture which included a surfactant.
(§2) Treated plants and controls were maintained in a greenhouse for 13 to 15 days, after which time all species were compared to controls and visually evaluated. Plant response ratings, summarized in Table C, are based on a scale of 0 to 100 where 0 is no effect and 100 is complete control. A dash (-) response means no test result.

Oilseed Rape [2] = assay: Test C postemergence: oilseed rape; assay type: in vivo, Brassica napus
Description: as §1
(§3) At the same time, plants selected from these crop and weed species and also barley (winter barley, Hordeum vulgare), canarygrass (Phalaris minor), chickweed (common chickweed, Stellaria media) windgrass (Apera spica-venti) and deadnettle (henbit deadnettle, Lamium amplexicaule) were planted in pots containing Redi-Earth® planting medium (Scotts Company, 14111 Scottslawn Road, Marysville, Ohio 43041) comprising spaghnum peat moss, vermiculite, wetting agent and starter nutrients and treated with postemergence applications of test chemicals formulated in the same manner. Plants ranged in height from 2 to 18 cm (1- to 4-leaf stage) for postemergence treatments.
as §2

Oilseed Rape [3] = assay: Test C pre-/postemergence: oilseed rape; assay type: in vivo
Description: as §1, §3, §2

[4] = system: barnyardgrass (Echinochloa crus-galli); assay: Test C pre-/postemergence: barnyardgrass; assay type: in vivo; conditions: Preemergence, 250 g ai/ha; scale 0 to 100, 0 no effect, 100 complete control
Description: as §1, §3, §2

Barnyardgrass [5] = assay: Test C postemergence: barnyardgrass; assay type: in vivo, Echinochloa crus-galli
Description: as §3, §2

Barnyardgrass [6] = assay: Test C postemergence: barnyardgrass; assay type: in vivo, Echinochloa crus-galli; conditions: 125 g ai/ha, scale 0 to 100, 0 no effect, 100 complete control
Description: as §1, §3, §2

Waterhemp [7] = assay: Test C pre-/postemergence: waterhemp; assay type: in vivo
Description: as §1, §3, §2

Waterhemp [8] = assay: Test C postemergence: waterhemp; assay type: in vivo, Amaranthus rudis
Description: as §1, §3, §2

Barnyardgrass [9] = assay: Test C preemergence: barnyardgrass; assay type: in vivo, Echinochloa crus-galli
Description: as §1, §2

[10] = system: goosegrass (Eleusine indica); assay: Test C pre-/postemergence: goosegrass; assay type: in vivo
In short: (§4)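 Preemergence on seeds in loam/sand, postemergence on 2–18 cm (1–4-leaf) plants in peat-based medium; compounds in non-phytotoxic solvent with surfactant. After 13–15 days in greenhouse, visual rating versus controls, 0 (no effect) to 100 (complete control).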

[11] = system: barley (winter barley, Hordeum vulgare); assay: Test C postemergence: barley; assay type: in vivo
In short: (§5)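 Visual 0–100 injury score vs untreated controls (0 none, 100 complete control), taken 13–15 d after treatment. Postemergence spray on potted plants, 2–18 cm, 1–4 leaves; greenhouse.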

[12] = system: common (oilseed) sunflower (Helianthus annuus); assay: Test C pre-/postemergence: sunflower; assay type: in vivo; conditions: Preemergence
In short: as §4

[13] = system: windgrass (Apera spica-venti); assay: Test C postemergence: windgrass; assay type: in vivo
In short: as §5

[14] = system: foxtail, green (green foxtail, Setaria viridis); assay: Test C pre-/postemergence: foxtail, green; assay type: in vivo
In short: as §4

[15] = system: surinam grass (Brachiaria decumbens); assay: Test C pre-/postemergence: surinam grass; assay type: in vivo
In short: as §4

[16] = system: bermudagrass (Cynodon dactylon); assay: Test C pre-/postemergence: bermudagrass; assay type: in vivo
In short: as §4

[17] = system: woolly cupgrass (Eriochloa villosa); assay: Test C pre-/postemergence: woolly cupgrass; assay type: in vivo
In short: as §4

[18] = system: canarygrass (Phalaris minor); assay: Test C postemergence: canarygrass; assay type: in vivo
In short: as §5

[19] = system: cocklebur (common cocklebur, Xanthium strumarium); assay: Test C pre-/postemergence: cocklebur; assay type: in vivo
In short: as §4

[20] = 125 g ai/ha, scale 0 to 100, 0 no effect, 100 complete control
[21] = 250 g ai/ha, scale 0 to 100 (0 no effect, 100 complete control)
[22] = Postemergence, 31 g ai/ha, scale 0 to 100 (0 no effect, 100 complete control)
[23] = Preemergence, 250 g ai/ha, scale 0 to 100, 0 no effect, 100 complete control
[24] = 31 g ai/ha, scale 0 to 100 (0 no effect, 100 complete control)
[25] = 62 g ai/ha, scale 0 to 100 (0 no effect, 100 complete control)
[26] = 31 g ai/ha, scale 0 (no effect) to 100 (complete control)
[27] = 62 g ai/ha, scale of 0 to 100, 0 is no effect, 100 is complete control
[28] = Postemergence, 62 g ai/ha, scale 0 to 100 (0 no effect, 100 complete control)
[29] = Postemergence, 125 g ai/ha, scale 0 to 100, 0 no effect, 100 complete control
[30] = Postemergence, 250 g ai/ha, scale 0 to 100 (0 no effect, 100 complete control)
[31] = Preemergence, 31 g ai/ha, scale 0 (no effect) to 100 (complete control)
[32] = Preemergence, 62 g ai/ha, scale 0 to 100, 0 no effect, 100 complete control
[33] = Preemergence, 125 g ai/ha, scale 0 to 100, 0 no effect, 100 complete control
[34] = Postemergence, 250 g ai/ha, scale 0 to 100

CCCc1nn(-c2ccc(F)cc2F)nc1Oc1ccnc(C(F)(F)F)c1 [Compound 179]
Plant response rating, Oilseed Rape (Oilseed Rape [1]; 62 g ai/ha): 98
Plant response rating, Oilseed Rape (Oilseed Rape [2]; [20]): 90
Plant response rating, Oilseed Rape (Oilseed Rape [2]; [21]): 90
Plant response rating, Oilseed Rape (Oilseed Rape [3]; [22]): 30
Plant response rating, Oilseed Rape (Oilseed Rape [3]; [23]): 100
Plant response rating, Barnyardgrass [4]: 100
Plant response rating, Barnyardgrass (Barnyardgrass [5]; [24]): 40
Plant response rating, Barnyardgrass (Barnyardgrass [5]; [25]): 45
Plant response rating, Barnyardgrass (Barnyardgrass [5]; 250 g ai/ha, scale 0 to 100): 75
Plant response rating, Barnyardgrass (Barnyardgrass [6]): 65
Plant response rating, Waterhemp (Waterhemp [7]; [22]): 80
Plant response rating, Waterhemp (Waterhemp [8]; [20]): 95
Plant response rating, Waterhemp (Waterhemp [8]; [21]): 95
Plant response rating, Barnyardgrass (Barnyardgrass [9]; [26]): 40
Plant response rating, Barnyardgrass (Barnyardgrass [9]; [27]): 100
Plant response rating, Barnyardgrass (Barnyardgrass [9]; [20]): 100

CCOc1nn(-c2ccc(C(F)(F)F)cc2)nc1Cc1ccnc(C(F)(F)F)c1 [Compound 164, 4-[[5-ethoxy-2-[4-(trifluoromethyl)phenyl]-2H-1,2,3-triazol-4-yl]methyl]-2-(trifluoromethyl)pyridine]
Plant response rating, Oilseed Rape (Oilseed Rape [1]; 62 g ai/ha): 5
Plant response rating, Oilseed Rape (Oilseed Rape [2]; [20]): 20
Plant response rating, Oilseed Rape (Oilseed Rape [3]; [23]): 30
Plant response rating, Barnyardgrass [4]: 70
Plant response rating, Barnyardgrass (Barnyardgrass [5]; [24]): 5
Plant response rating, Barnyardgrass (Barnyardgrass [5]; [25]): 10
Plant response rating, Barnyardgrass (Barnyardgrass [5]; 250 g ai/ha, scale 0 to 100): 10
Plant response rating, Barnyardgrass (Barnyardgrass [6]): 10
Plant response rating, Waterhemp (Waterhemp [8]; [20]): 65
Plant response rating, Barnyardgrass (Barnyardgrass [9]; [26]): 5
Plant response rating, Barnyardgrass (Barnyardgrass [9]; [27]): 15
Plant response rating, Barnyardgrass (Barnyardgrass [9]; [20]): 25

CCOc1nn(-c2ccc(F)cc2)nc1Cc1ccnc(C(F)(F)F)c1 [Compound 196, 4-[[5-ethoxy-2-(4-fluorophenyl)-2H-1,2,3-triazol-4-yl]methyl]-2-(trifluoromethyl)pyridine]
Plant response rating, Goosegrass [10, 22]: 75
Plant response rating, Goosegrass [10, 28]: 75
Plant response rating, Goosegrass [10, 29]: 80
Plant response rating, Goosegrass [10, 30]: 85
Plant response rating, Goosegrass [10, 31]: 100
Plant response rating, Goosegrass [10, 32]: 100
Plant response rating, Goosegrass [10, 33]: 100
Plant response rating, Goosegrass [10, 23]: 100
Plant response rating, Barley [11, 24]: 30
Plant response rating, Barley [11, 25]: 40
Plant response rating, Barley [11, 20]: 45
Plant response rating, Barley ([11]; 250 g ai/ha, scale 0 to 100): 50
Plant response rating, Sunflower [12, 26]: 5
Plant response rating, Sunflower ([12]; 62 g ai/ha, scale 0 to 100, 0 no effect, 100 complete control): 20
Plant response rating, Sunflower [12, 20]: 30
Plant response rating, Sunflower ([12]; 250 g ai/ha, scale 0 to 100, 0 no effect, 100 complete control): 40
Plant response rating, Windgrass [13, 24]: 80
Plant response rating, Windgrass [13, 25]: 80
Plant response rating, Windgrass [13, 20]: 95
Plant response rating, Windgrass [13, 21]: 95
Plant response rating, Foxtail, Green [14, 22]: 100
Plant response rating, Foxtail, Green [14, 28]: 100
Plant response rating, Foxtail, Green [14, 29]: 100
Plant response rating, Foxtail, Green [14, 30]: 100
Plant response rating, Foxtail, Green [14, 31]: 90
Plant response rating, Foxtail, Green [14, 32]: 90
Plant response rating, Foxtail, Green [14, 33]: 90
Plant response rating, Foxtail, Green [14, 23]: 90
Plant response rating, Surinam Grass [15, 22]: 35
Plant response rating, Surinam Grass [15, 28]: 70
Plant response rating, Surinam Grass [15, 29]: 70
Plant response rating, Surinam Grass [15, 30]: 75
Plant response rating, Surinam Grass [15, 31]: 90
Plant response rating, Surinam Grass [15, 32]: 98
Plant response rating, Surinam Grass [15, 33]: 100
Plant response rating, Surinam Grass [15, 23]: 100
Plant response rating, Bermudagrass [16, 22]: 80
Plant response rating, Bermudagrass [16, 28]: 80
Plant response rating, Bermudagrass [16, 29]: 85
Plant response rating, Bermudagrass [16, 34]: 90
Plant response rating, Bermudagrass [16, 31]: 98
Plant response rating, Bermudagrass [16, 32]: 98
Plant response rating, Bermudagrass [16, 33]: 100
Plant response rating, Bermudagrass [16, 23]: 100
Plant response rating, Cupgrass, Woolly [17, 22]: 30
Plant response rating, Cupgrass, Woolly [17, 28]: 80
Plant response rating, Cupgrass, Woolly [17, 29]: 85
Plant response rating, Cupgrass, Woolly [17, 34]: 90
Plant response rating, Cupgrass, Woolly [17, 31]: 90
Plant response rating, Cupgrass, Woolly [17, 32]: 98
Plant response rating, Cupgrass, Woolly [17, 33]: 100
Plant response rating, Cupgrass, Woolly [17, 23]: 100
Plant response rating, Canarygrass [18, 24]: 80
Plant response rating, Canarygrass [18, 25]: 90
Plant response rating, Canarygrass [18, 20]: 90
Plant response rating, Canarygrass ([18]; 250 g ai/ha, scale 0 to 100): 90
Plant response rating, Cocklebur [19, 22]: 55
Plant response rating, Cocklebur [19, 28]: 60
Plant response rating, Cocklebur [19, 29]: 65
Plant response rating, Cocklebur [19, 34]: 75
Plant response rating, Cocklebur [19, 31]: 5
Plant response rating, Cocklebur [19, 33]: 45
Plant response rating, Cocklebur [19, 23]: 75

CCOCc1nn(-c2ccc(F)cc2)nc1Oc1ccnc(C(F)(F)F)c1 [Compound 163]
Plant response rating, Oilseed Rape (Oilseed Rape [1]; 31 g ai/ha): 0
Plant response rating, Oilseed Rape (Oilseed Rape [1]; 62 g ai/ha): 50
Plant response rating, Oilseed Rape (Oilseed Rape [3]; [23]): 95
Plant response rating, Barnyardgrass [4]: 100
Plant response rating, Waterhemp (Waterhemp [7]; [23]): 100
Plant response rating, Barnyardgrass (Barnyardgrass [9]; 31 g ai/ha, scale of 0 to 100, 0 is no effect, 100 is complete control): 10
Plant response rating, Barnyardgrass (Barnyardgrass [9]; [27]): 25
Plant response rating, Barnyardgrass (Barnyardgrass [9]; [20]): 75
